Patent EP0727211A1, “Use of src SH2 specific compounds to treat a bone resorption disease” (SMITHKLINE BEECHAM CORPORATION, priority 1995, dated 1996)
Like-named read-outs stand apart in the source and are kept apart here. Blank lines part the entries; values can stand above or below the compound they belong to.

How the values were obtained:
human src SH2 domain [1] = target: human src SH2 domain (Homo sapiens, UniProt P12931); assay: SH2 domain / pY peptide binding assay (ELISA-based, 96 well plate), src SH2
Sequence of human src SH2 domain (Homo sapiens, UniProt P12931) (P12931 151-248): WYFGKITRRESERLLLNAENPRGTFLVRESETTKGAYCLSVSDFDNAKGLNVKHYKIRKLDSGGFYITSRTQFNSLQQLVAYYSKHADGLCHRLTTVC
Method: (§1) The inhibitory activity of compounds at the different human SH2 domains was determined in vitro using SH2 domains expressed as fusion proteins in E. coli. The SH2 domains used herein were the human forms of the src SH2 domain, Grb2 SH2 domain, lck SH2 domain, fyn SH2 domain, SH-PTP2 SH2 domain, p85 SH2 domain and hcp SH2 domain. The fusion proteins containing the src, lck and hcp SH2 domains were expressed as the general sequence: DET1-DET2-spacer-ek-SH2, where DETI, DET2, spacer, ek and SH2 are as described below. […] Monoclonal antibodies to various epitopes of HIV-1 gp120 (or gp160) are known in the art, see, for example U.S. Patent 5,166,050. One preferred example is monoclonal antibody 178.1 (see, […] et al., J. Immunol., 143:1832-1836 (1989)), which was prepared by immunization of mice with a yeast-expressed HIV-1 gp160 molecule from strain BH10 (Ratner et al., Nature, 313:277-284 (1985)). This tag was used for detection of expression (by Western blot), for purification of the protein (by affinity chromatography), and for configuring assays in which the fusion protein was captured or immobilized using the 178.1 antibody. DET2 is a hexahistidine sequence tag (SEQ ID NO: 2) which binds to nickel-containing resins and was used for purification purposes. Spacer (SEQ ID NO: 3) was utilized to design a BamH1 restriction site at the indicated position of the construct. The term -[…] to a recognition sequence (SEQ ID NO: 4) for the enterokinase protease which provides for the optional removal of the tags from the SH2 domain, thus producing an SH2 domain that contains no extraneous amino acids. SH2 domains which contain no extraneous amino acids are preferable to tagged protein for crystallography studies. SH2 refers to the SH2 domains of different proteins. Cloning, expression and purification of human src SH2 domain containing tags and an enterokinase proteolytic cleavage site (DET1-DET2-spacer-ek-src SH2). A DNA sequence encoding protein ek-src SH2 was PCR amplified from a cDNA clone containing the human src gene (c-src SH2 DNA sequence identical to that described in […]. and Hanafusa, H, 1983 Cell 32:881-890) using the following primers: [formula] The PCR product was digested with BamHI and XbaI, followed by isolation of the digested fragment on an agarose gel. […] In that vector, the BamHI site is located between the coding regions for DET2 and SH2, and the XbaI site is located after the 3' end of the SH2 coding region. The ligation reaction was used to transform E. coli M[…]^+. […] Cells were lysed at neutral pH by sonication in the […] of lysozyme. […] After washing the column with equilibration buffer (Tris buffer pH 8 containing 0.5 M NaCl) and the same buffer containing 15 mM imidazole, the protein was eluted in highly purified form with 25 mM imidazole in equilibration buffer. […] The binding assays for the SH2 domains and pY peptides were performed in an ELISA-based 96 well plate assay. In Millipore 96 well filter plates, hydrophilic Durapore® (pore size 0.65um Cat. No. MADVN6550), was added 2 ul (50% suspension) of Protein-G Sepharose (available from Pharmacia of N.J. Cat. […] The volume was brought to 100 ul with TBS-T (tris buffered saline plus 0.05% tween-20), incubated and shaken at room trmperature for 1 hr. then washed 1x with TBS-T (4°C). 90 ul of TBS-T were then added to each well. […] The assay plates were incubated until equilibrium binding was attained (3 hr at 4°C with shaking). […] The A490 of each ELISA plate was then determined. […]

human src SH2 domain [2] = assay: as above; conditions: selectivity for src SH2 versus the other SH2 domains of Tables I and II
Method: as §1

[3] = system: osteoclast mediated bone resorption; assay: fetal rat long bone (FRLB) assay, 45calcium release; type: cell-based, Sprague Dawley rats; conditions: inhibition of 45calcium release from fetal rat radii and ulnae, 48 hours culture with compound, n=4
Method: 4-[4-(4-Methylbenzoyl)benzoyl]phenylacetaldehyde (Compound 4) was tested for its potency to inhibit osteoclast mediated bone resorption in the fetal rat long bone (FRLB) assay as described in Raisz LG (1965) J Clin Invest 44: 103-116, Stern PH et al., (1979) Skeletal Research: An experimental Approach. New York:Academic Press, 21-59 and Votta BJ et al., (1994) Bone 15:533-538).
To perform the experiment timed-pregnant Sprague Dawley rats (Taconic Farms, Germantown, NY) were injected subcutaneously with 200 µCi of ^45CaCl2 on day 18 of gestation, housed overnight, then anesthetized with Innovar-Vet (Pittman-Moore, Mundelein, IL) and sacrificed by cervical dislocation. Fetuses were removed aseptically and radii and ulnae were dissected free of surrounding soft tissue and cartilaginous ends. The bones were cultured 18-24 hours in BGJb medium (Sigma) containing 1 mg/ml bovine serum albumin, then transferred to fresh medium and cultured for an additional 48 hours in the absence or presence of Compound 4. ^45Calcium released into the medium and total calcium in the bones were measured by liquid scintillation spectrometry. Data were expressed as the % ^45calcium released from treated bones as compared to corresponding control bones. Statistical differences were assessed by employing a one-way analysis of variance for non-paired samples. Data are presented as mean ± s.e.m., n=4. […]

- Ki (human src SH2 domain [1]; Ki calculated from IC50 by the expanded equation; Table II; read-out: Src (Ki)): 20 µM
- IC50 (human src SH2 domain [1]; cloned human SH2 domain fusion protein; 0.1 uM biotinylated pY peptide; Table I; read-out: Src (IC50)): 7.4 µM
- binding affinity/inhibitory concentration at the src SH2 domain than at other SH2 domains (human src SH2 domain [2]): greater than fifty-fold higher
Compound: CCCCCCNC(=O)[C@H]1CC[C@H](CNC(=O)c2ccc([N+](=O)[O-])cc2)CC1 [Compound 7, 4-nitro-benzamido-trans-4-methyl-cyclohexyl-N-hexyl carboxamide]

Compound: N[C@@H](Cc1cc(Br)c(Oc2ccc(O)c(Cc3ccc(O)nn3)c2)c(Br)c1)C(=O)O [Compound 2, L-3,5-Dibromo-3'-(6-oxo-3(1H)-pyridazinylmethyl)-thyronine]
- IC50 (human src SH2 domain [1]; read-out: Src (IC50); cloned human SH2 domain fusion protein; 0.1 uM biotinylated pY peptide; Table I): > 300 µM
- Ki (human src SH2 domain [1]; read-out: Src (Ki); Ki calculated from IC50 by the expanded equation; Table II): > 1000 µM

- IC50 [3]: 19 µM
Compound: Cc1ccc(C(=O)c2ccc(C(=O)c3ccc(CC=O)cc3)cc2)cc1 [Compound 4, 4-[4-(4-Methylbenzoyl)benzoyl]phenylacetaldehyde]
